Paper PMC8411975, “Frag4Lead: growing crystallographic fragment hits by catalog using fragment-guided template docking” (Acta Crystallographica. Section D, Structural Biology, 2021)
Where two headings read alike, the source gives them in different places.

Legend:
endothiapepsin (EP) [1] = molecular target: T1, endothiapepsin (EP) (Cryphonectria parasitica, UniProt P11838); set-up: method as in Schiebel, Radeva et al. (2016); conditions: starting fragments, ref Schiebel, Radeva et al. (2016), cited from earlier work; for Kd: read-out: Kd (dissociation constant of the compound from EP)
T1 sequence (P11838 90-419): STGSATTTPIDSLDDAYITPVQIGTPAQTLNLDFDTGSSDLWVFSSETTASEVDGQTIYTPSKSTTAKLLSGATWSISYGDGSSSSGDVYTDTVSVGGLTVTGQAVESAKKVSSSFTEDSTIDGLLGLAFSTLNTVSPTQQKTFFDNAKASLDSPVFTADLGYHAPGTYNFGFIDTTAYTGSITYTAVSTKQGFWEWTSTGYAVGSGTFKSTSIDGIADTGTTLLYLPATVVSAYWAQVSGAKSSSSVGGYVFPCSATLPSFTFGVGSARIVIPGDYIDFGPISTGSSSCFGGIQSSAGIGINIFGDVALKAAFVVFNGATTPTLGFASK

endothiapepsin (EP) [2] = molecular target: T1, endothiapepsin (EP); assay: Compound soaking into EP crystals and X-ray crystal structure determination; format: binding; conditions: soaking at 100 mM or supernatant, 16–22 h
Protocol: The follow-up compounds (a full list, including providers and purities, if known, is given in Supplementary Table S1) were directly dissolved in a soaking solution consisting of 68.2 mM sodium acetate pH 4.6, 68.2 mM ammonium acetate pH 7.0, 16.9%(w/v) PEG 4000, 19.3%(v/v) glycerol, 9.09%(v/v) DMSO to a concentration of 100 mM. For poorly soluble follow-up compounds, crystals were soaked in the supernatant of the solution. After incubation for 16–22 h the crystals were flash-cooled in liquid nitrogen and stored for diffraction data collection.
All data collections were carried out on beamlines BL14.1 and BL14.2 of the BESSY II electron-storage ring operated by the Helmholtz-Zentrum Berlin (HZB; Mueller et al., 2015[▸]). Typically, 360° of data were collected in 0.1° increments using an exposure time of 0.1 s. Data were automatically processed using XDSAPP (Sparta et al., 2016[▸]).
All structures were refined using the automated script fspipeline, which is based on Schiebel, Krimmer et al. (2016[▸]). The starting model was based on PDB entry 4y5l (Schiebel, Krimmer et al., 2016[▸]), from which all ligands and water molecules were removed. Electron-density maps and coordinate files obtained from the automated refinement were inspected manually for each experiment to judge the presence or absence of the expected ligand in the difference electron density. Subsequently, the identified hits were subjected to several rounds of alternating model building in Coot (Emsley et al., 2010[▸]) and refinement in Phenix (Liebschner et al., 2019[▸]) before and after ligand placement. For all follow-up ligands, occupancy refinement was carried out. Refined models and the corresponding electron-density maps were submitted to the PDB under group deposition ID G_1002201.

endothiapepsin (EP) [3] = molecular target: T1, endothiapepsin (EP); assay: Isothermal titration calorimetry (direct or SAP114-displacement titration) against EP; format: binding; conditions: for LE (ligand efficiency): from ITC Kd; for Kd: read-out: Kd determined by ITC; for fold affinity increase compared with the starting fragment: ITC Kd of follow-up versus Kd of its starting fragment
Protocol: (§1) ITC experiments were conducted similarly to the procedure desribed by Schiebel, Radeva et al. (2016[▸]) on a MicroCal ITC200 (Malvern) instrument. All buffer solutions for ITC were prepared with the same batch of buffer as used to isolate the batch of EP. Details of the ITC experiments, including the protein and ligand concentrations for each experiment, are listed in Supplementary Table S2. […] All displacement titrations were conducted as single measurements, except for that of FU5-2 (n = 3). The affinities of the stronger binding follow-up ligands were determined by direct ITC titrations. For this, 1 mM compound in a buffer solution consisting of 0.1 M sodium acetate pH 4.6, 3%(v/v) DMSO was titrated into the same buffer additionally containing 50 µM EP to a final stoichiometry of N = 4.
The obtained thermogram peaks of all titrations (Supplementary Fig. S4) were integrated with Nitpic 1.1.8 (Keller et al., 2012[▸]). Subsequently, fitting of a single-site binding-model isotherm was performed using SEDPHAT 10.58d (Houtman et al., 2007[▸]). For the errors of the fit, see Supplementary Table S3. […] During the fit, ΔH was corrected for the heat of dilution, which was individually fitted for each experiment. The stoichiometry was arbitrarily fixed at the anticipated stoichiometry of N = 1 as appropriate for the present low c-value titrations (Rühmann et al., 2015[▸]).
Table S2. Details of ITC measurements.
Follow-Up Titration Concentration Ligand Concentration Final Stoichiometry
Compound Type in Cell Concentration in Syringe (Ligand:Protein)
[a] 0.1% (v/v) Tween 20 in s yringe and cell.
Table S3. Fitting statistics for ITC titration curves
Compound Global reduced chi-square[a] local rmsd[a] (B:A) n[c] Kd [µM] (SD)[d]
Isotherm fitting statistics of ITC data, anal yzed vi a SEDPHAT 10.58d (Houtman et al., 2007).
[a] Goodness of fit p arameters (glob al reduced chi-squ are and wei ghted local rmsd)
[b] Stochiometry o f the ligand protein A and t he ligand B at the infl ection point of the
[c] Number of used data points corresponding to injections of the ITC ex periment

[4] = Stability of synthesized compound on exposure to air; format: physicochemical; conditions: exposed to air at room temperature over a longer period of time
[5] = Solubility noted during ITC sample preparation; format: physicochemical; conditions: ITC buffer, 0.1 M sodium acetate pH 4.6, 3%(v/v) DMSO
Protocol: as §1

For `N=C(N)SCc1ccc(Cl)cc1` [F290], the “LE (ligand efficiency, binding energy per non-H atom)” value (endothiapepsin (EP) [1]) is listed as 0.45 kcal mol^−1 per atom and the Kd (endothiapepsin (EP) [1]) is listed as 100 µM.

With `CN(C)CCNC(=O)c1cc2n(n1)CCN(c1ccnc(N)n1)C2` [FU58-2] the “binding observed in crystal structure after soaking” value (“binding observed” below) (endothiapepsin (EP) [2]) was “observed in crystal structures”.

With `Oc1nc(-c2ccco2)ccc1CN(Cc1ccccn1)C1CC1` [FU66-1] the “binding observed” value (endothiapepsin (EP) [2]) was “observed in the crystal structure”, the “LE (ligand efficiency)” value (endothiapepsin (EP) [3]) was 0.21 kcal mol^−1 per atom and the Kd (endothiapepsin (EP) [3]) was 160 µM.

In the case of `CSc1ccc(CNCCO)cc1` [FU58-3b, 2-{[4-(methylthio)benzyl]amino}ethan-1-ol], the “binding observed” value (endothiapepsin (EP) [2]) is reported as “identified in the electron density”.

In the case of `Cc1cc(CN)n(C)n1` [F058], the “LE (ligand efficiency, binding energy per non-H atom)” value (endothiapepsin (EP) [1]) is listed as 0.31 kcal mol^−1 per atom and the Kd (endothiapepsin (EP) [1]) is listed as 8800 µM.

For `NC1=N/C(=N\Nc2ccccc2)c2ccccc21` [FU5-1], the “stability of the compound” value [4] was “decomposition” and the solubility [5] was “poor solubility”.

With `NC1=NC(=O)c2ccccc21` [FU5-3] the “binding observed” value (endothiapepsin (EP) [2]) was “retained the binding pose of F005”, the “LE (ligand efficiency)” value (endothiapepsin (EP) [3]) was 0.39 kcal mol^−1 per atom and the Kd (endothiapepsin (EP) [3]) was 740 µM.

With `N=C(N)SCc1ccc(CSC(=N)N)cc1` [FU290-1] the “fold affinity increase compared with the starting fragment” value (endothiapepsin (EP) [3]) was 14 fold, the “LE (ligand efficiency)” value (endothiapepsin (EP) [3]) was 0.44 kcal mol^−1 per atom and the Kd (endothiapepsin (EP) [3]) was 7.2 µM.

For `CC(SC(=N)N)c1ccc(Cl)cc1` (stereo not shown) [FU290-2], the “LE (ligand efficiency)” value (endothiapepsin (EP) [3]) was 0.40 kcal mol^−1 per atom and the Kd (endothiapepsin (EP) [3]) was 160 µM.

With `N=C(N)N/N=C1\N=C(N)c2ccccc21` [FU5-4] the “LE (ligand efficiency)” value (endothiapepsin (EP) [3]) was 0.31 kcal mol^−1 per atom and the Kd (endothiapepsin (EP) [3]) was 400 µM.

In the case of `Cc1noc(C)c1CN(C)Cc1cc2n(n1)CCN(c1cc(N)ncn1)C2` [FU58-1], the “binding observed” value (endothiapepsin (EP) [2]) is reported as “observed in crystal structures”, the “fold affinity increase compared with the starting fragment” value (endothiapepsin (EP) [3]) is reported as “about 20 fold” and the “LE (ligand efficiency)” value (endothiapepsin (EP) [3]) is reported as 0.17 kcal mol^−1 per atom. For the same molecule, the Kd (endothiapepsin (EP) [3]) was 450 µM.

In the case of `O=C(CN1CCCCC1)Nc1ccc2c(c1)OCO2` [F041], the “LE (ligand efficiency, binding energy per non-H atom)” value (endothiapepsin (EP) [1]) is given as 0.22 kcal mol^−1 per atom and the Kd (endothiapepsin (EP) [1]) is given as 900 µM.

In the case of `N=C1N=C(N)c2ccccc21` [FU5-2], the “binding observed” value (endothiapepsin (EP) [2]) is reported as “retained the binding pose of F005”, the “LE (ligand efficiency)” value (endothiapepsin (EP) [3]) is reported as 0.37 kcal mol^−1 per atom and the Kd (endothiapepsin (EP) [3]) is reported as 970 µM.

For `CSc1ccc(CN(CCO)Cc2cc(C)nn2C)cc1` [FU58-3], the “binding observed” value (endothiapepsin (EP) [2]) was “observed in crystal structures”, the “LE (ligand efficiency)” value (endothiapepsin (EP) [3]) was 0.19 kcal mol^−1 per atom and the Kd (endothiapepsin (EP) [3]) was 1040 µM.

For `NCc1ccc(-c2ccco2)nc1` [F066], the “LE (ligand efficiency, binding energy per non-H atom)” value (endothiapepsin (EP) [1]) is given as 0.35 kcal mol^−1 per atom and the Kd (endothiapepsin (EP) [1]) is given as 400 µM.

In the case of `NC1=NCc2ccccc21` [F005], the “LE (ligand efficiency, binding energy per non-H atom)” value (endothiapepsin (EP) [1]) is given as 0.38 kcal mol^−1 per atom and the Kd (endothiapepsin (EP) [1]) is given as 1700 µM.
